Assays:
Type in all cases: cell-based
NK1 = NK1 (Homo sapiens, UniProt P25103); test: Signal transduction (ST), intracellular Ca++ (FLIPR), NK1 antagonistic activity; conditions: read-out: pIC50 NK1 (converted)
Outline: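 Confluent cells loaded with 2 μM Fluo3 (1 h, 37 °C, probenecid), preincubated 20 min at RT with antagonist concentration range, then agonist added. Peak Ca++ transient read by FLIPR in Krebs buffer pH 7.4; IC50 by non-linear regression.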

NK2 = molecular target: T1, NK2 (Homo sapiens, UniProt P21452); test: Signal transduction (ST), intracellular Ca++ (FLIPR), NK2; conditions: read-out: pIC50 NK2 (converted)
T1 sequence (P21452 1-398): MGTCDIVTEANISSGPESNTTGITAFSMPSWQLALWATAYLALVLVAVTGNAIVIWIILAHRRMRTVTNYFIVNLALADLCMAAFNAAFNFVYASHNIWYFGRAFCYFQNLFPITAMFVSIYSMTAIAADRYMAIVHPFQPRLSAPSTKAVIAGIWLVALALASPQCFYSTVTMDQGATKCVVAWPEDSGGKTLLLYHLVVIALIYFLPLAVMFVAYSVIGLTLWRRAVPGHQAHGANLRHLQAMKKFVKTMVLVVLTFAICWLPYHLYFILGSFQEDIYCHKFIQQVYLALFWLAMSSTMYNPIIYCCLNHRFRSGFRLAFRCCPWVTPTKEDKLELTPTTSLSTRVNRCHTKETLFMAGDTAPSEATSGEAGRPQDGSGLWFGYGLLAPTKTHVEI
Description: [The procedure below names another target; the source lists this target under the same test.] This test evaluates in vitro functional NK1 antagonistic activity. For the measurements of intracellular Ca^++ concentrations the cells were grown on 96-well (black wall/transparent bottom) plates from Costar for 2 days until they reached confluence. The cells were loaded with 2 μM Fluo3 in DMEM containing 0.1% BSA and 2.5 mM probenecid for 1 h at 37° C. They were washed 3× with a Krebs buffer (140 mM NaCl, 1 mM MgCl2×6H2O, 5 mM KCl, 10 mM glucose, 5 mM HEPES; 1.25 mM CaCl2; pH 7.4) containing 2.5 mM probenecid and 0.1% BSA (Ca^++-buffer). The cells were preincubated with a concentration range of antagonists for 20 min at RT and Ca^++-signals after addition of the agonists were measured in a Fluorescence Image Plate Reader (FLIPR from Molecular Devices, Crawley, England). The peak of the Ca^++-transient was considered as the relevant signal and the mean values of corresponding wells were analysed as described below.
The sigmoidal dose response curves were analysed by computerised curve-fitting, using the GraphPad Program. […] For antagonist responses the IC50-value was calculated using non-linear regression.
The last columns indicates—without being limited therefore—for which the compounds might be most suitable. Of course, since for some neurokinin receptors no data was determined, it is obvious that these compounds might be attributed to another suitable use.

NK3 = molecular target: T2, NK3 (Homo sapiens, UniProt P29371); test: Signal transduction (ST), intracellular Ca++ (FLIPR), NK3; conditions: read-out: pIC50 NK3 (converted)
T2 sequence (P29371 1-465): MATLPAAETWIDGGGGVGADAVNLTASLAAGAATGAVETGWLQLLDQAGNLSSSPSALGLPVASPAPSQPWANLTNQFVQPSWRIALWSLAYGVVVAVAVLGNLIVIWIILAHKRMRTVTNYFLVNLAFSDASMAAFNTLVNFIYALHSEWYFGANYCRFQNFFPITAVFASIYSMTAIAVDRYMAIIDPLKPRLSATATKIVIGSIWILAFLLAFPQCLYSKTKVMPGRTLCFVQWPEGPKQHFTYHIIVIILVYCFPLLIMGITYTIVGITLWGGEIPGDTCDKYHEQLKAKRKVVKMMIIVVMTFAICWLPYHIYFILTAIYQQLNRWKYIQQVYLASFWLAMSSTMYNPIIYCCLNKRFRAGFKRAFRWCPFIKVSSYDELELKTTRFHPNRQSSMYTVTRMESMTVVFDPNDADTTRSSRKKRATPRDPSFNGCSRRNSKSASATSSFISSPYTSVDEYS

Chain of NK1 (P25103 whole entry): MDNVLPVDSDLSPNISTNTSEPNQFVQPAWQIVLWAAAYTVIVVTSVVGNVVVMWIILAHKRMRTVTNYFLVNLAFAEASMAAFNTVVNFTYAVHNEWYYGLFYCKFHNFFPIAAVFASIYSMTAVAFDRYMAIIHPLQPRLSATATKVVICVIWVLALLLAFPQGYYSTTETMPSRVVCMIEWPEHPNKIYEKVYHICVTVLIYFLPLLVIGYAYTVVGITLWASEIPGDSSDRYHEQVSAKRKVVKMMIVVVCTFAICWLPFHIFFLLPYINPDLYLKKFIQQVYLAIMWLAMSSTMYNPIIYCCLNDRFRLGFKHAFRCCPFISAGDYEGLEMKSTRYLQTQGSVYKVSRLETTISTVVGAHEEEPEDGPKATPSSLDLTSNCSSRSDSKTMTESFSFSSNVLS

| IC50 (NK1) | IC50 (NK2) | IC50 (NK3) | Structure (SMILES) |
| --- | --- | --- | --- |
| 7.94 nM |  | 398 nM | CC(C)(C)CC(=O)N1CCC(N2CCN([C@H]3CCN(C(=O)c4cc(C(F)(F)F)cc(C(F)(F)F)c4)[C@H](Cc4ccccc4)C3)CC2)C1 (stereo partly shown) [Compound 200] |
| 25.1 nM |  | 2510 nM | O=C(c1cc(C(F)(F)F)cc(C(F)(F)F)c1)N1CCC(N2CCN(C3CCN(c4noc5ccccc45)C3)CC2)CC1Cc1ccccc1 (stereo not shown) [Compound 204] |
| 20 nM |  | 3980 nM | O=C(CNc1ccccc1CO)N1CCC(N2CCN(C3CCN(C(=O)c4cc(C(F)(F)F)cc(C(F)(F)F)c4)C(Cc4ccccc4)C3)CC2)C1 (stereo not shown) [Compound 207] |
| 15.8 nM |  | 2510 nM | O=C(Cn1cnc2ccccc21)N1CCC(N2CCN([C@H]3CCN(C(=O)c4cc(C(F)(F)F)cc(C(F)(F)F)c4)[C@H](Cc4ccccc4)C3)CC2)C1 (stereo partly shown) [Compound 208] |
| 31.6 nM |  | 5010 nM | O=C(CN1CCOC1=O)N1CCC(N2CCN([C@H]3CCN(C(=O)c4cc(C(F)(F)F)cc(C(F)(F)F)c4)[C@H](Cc4ccccc4)C3)CC2)C1 (stereo partly shown) [Compound 215] |
| 20 nM | 7940 nM |  | O=C(C1CCCCN1)N1CCC(N2CCN(C3CCN(C(=O)c4cc(C(F)(F)F)cc(C(F)(F)F)c4)C(Cc4ccccc4)C3)CC2)C1 (stereo not shown) [Compound 294] |
| 126 nM |  | 3980 nM | O=C(c1ccc(CCOCc2ccccc2)s1)N1CCC(N2CCN(C3CCN(C(=O)c4cc(C(F)(F)F)cc(C(F)(F)F)c4)C(Cc4ccccc4)C3)CC2)C1 (stereo not shown) [Compound 356] |
| 12.6 nM |  | 3980 nM | Cc1nc2c(o1)CCn1ccnc1C2N1CCC(N2CCN(C3CCN(C(=O)c4cc(C(F)(F)F)cc(C(F)(F)F)c4)C(Cc4ccccc4)C3)CC2)C1 (stereo not shown) [Compound 375] |
| 25.1 nM |  | 3980 nM | CC1(C)OCC(CNC(=C[N+](=O)[O-])N2CCC(N3CCN([C@H]4CCN(C(=O)c5cc(C(F)(F)F)cc(C(F)(F)F)c5)[C@H](Cc5ccccc5)C4)CC3)C2)O1 (stereo partly shown) [Compound 376] |
| 15.8 nM |  | 6310 nM | O=C(c1cc(C(F)(F)F)cc(C(F)(F)F)c1)N1CC[C@H](N2CCN(C3CCN(C(=C[N+](=O)[O-])N4CCCC4)C3)CC2)C[C@H]1Cc1ccccc1 (stereo partly shown) [Compound 377] |
| 31.6 nM |  | 3980 nM | CC(C)N1CC(CN2CCC(N3CCN(C4CCN(C(=O)c5cc(C(F)(F)F)cc(C(F)(F)F)c5)C(Cc5ccccc5)C4)CC3)C2)OC1=O (stereo not shown) [Compound 385] |
| 15.8 nM |  | 6310 nM | CC(=O)OCC(=O)N1CCC(N2CCN(C3CCN(C(=O)c4cc(C(F)(F)F)cc(C(F)(F)F)c4)C(Cc4ccccc4)C3)CC2)C1 (stereo not shown) [Compound 389] |
| 20 nM |  | 3160 nM | CC(C)(C)OCCC(=O)N1CCC(N2CCN(C3CCN(C(=O)c4cc(C(F)(F)F)cc(C(F)(F)F)c4)C(Cc4ccccc4)C3)CC2)C1 (stereo not shown) [Compound 391] |
| 251 nM |  | 7940 nM | CC1(C)OC(=O)[C@@H](CC(=O)N2CCC(N3CCN([C@H]4CCN(C(=O)c5cc(C(F)(F)F)cc(C(F)(F)F)c5)[C@H](Cc5ccccc5)C4)CC3)C2)O1 (stereo partly shown) [Compound 392] |
| 31.6 nM |  | 2000 nM | COCCC(=O)N1CC[C@H](N2CCN([C@H]3CCN(C(=O)c4cc(C(F)(F)F)cc(C(F)(F)F)c4)[C@H](Cc4ccccc4)C3)CC2)C1 [Compound 413] |

Second part, the compound before the results:

| Structure (SMILES) | IC50 (NK1) | IC50 (NK2) | IC50 (NK3) |
| --- | --- | --- | --- |
| O=C(c1cccnc1)N1CCC(N2CCN([C@H]3CCN(C(=O)c4cc(C(F)(F)F)cc(C(F)(F)F)c4)[C@H](Cc4ccccc4)C3)CC2)C1 (stereo partly shown) [Compound 28] | 50.1 nM | 2510 nM |  |
| Cn1cc(C(=O)N2CCC(N3CCN([C@H]4CCN(C(=O)c5cc(C(F)(F)F)cc(C(F)(F)F)c5)[C@H](Cc5ccccc5)C4)CC3)C2)ccc1=O (stereo partly shown) [Compound 29] | 79.4 nM | 2000 nM |  |
| CC(C)C(=O)N1CCC(N2CCN([C@H]3CCN(C(=O)c4cc(C(F)(F)F)cc(C(F)(F)F)c4)[C@H](Cc4ccccc4)C3)CC2)C1 (stereo partly shown) [Compound 199] | 10 nM |  | 1580 nM |
| CN(C)CC(=O)N1CCC(N2CCN([C@H]3CCN(C(=O)c4cc(C(F)(F)F)cc(C(F)(F)F)c4)[C@H](Cc4ccccc4)C3)CC2)C1 (stereo partly shown) [Compound 202] | 39.8 nM |  | 6310 nM |
| O=C(c1cc(C(F)(F)F)cc(C(F)(F)F)c1)N1CCC(N2CCN(C3CCN(C(=O)C(F)(F)F)C3)CC2)CC1Cc1ccccc1 (stereo not shown) [Compound 203] | 20 nM |  | 1000 nM |
| CC(C)(C)OC(=O)N1CCC(C(=O)N2CCC(N3CCN([C@H]4CCN(C(=O)c5cc(C(F)(F)F)cc(C(F)(F)F)c5)[C@H](Cc5ccccc5)C4)CC3)C2)CC1 (stereo partly shown) [Compound 210] | 15.8 nM |  | 7940 nM |
| O=C([C@H]1CCCN1)N1CCC(N2CCN([C@H]3CCN(C(=O)c4cc(C(F)(F)F)cc(C(F)(F)F)c4)[C@H](Cc4ccccc4)C3)CC2)C1 (stereo partly shown) [Compound 213] | 20 nM |  | 1580 nM |
| O=C1CCCN1CC(=O)N1CCC(N2CCN([C@H]3CCN(C(=O)c4cc(C(F)(F)F)cc(C(F)(F)F)c4)[C@H](Cc4ccccc4)C3)CC2)C1 (stereo partly shown) [Compound 214] | 20 nM |  | 3980 nM |
| CC(C)(C)OC(=O)N1CCC(C(=O)N2CCC(N3CCN([C@H]4CCN(C(=O)c5cc(C(F)(F)F)cc(C(F)(F)F)c5)[C@H](Cc5ccccc5)C4)CC3)C2)C1 (stereo partly shown) [Compound 228] | 25.1 nM |  | 6310 nM |
| CC(C)(C)OC(=O)N1CCCC(C(=O)N2CCC(N3CCN([C@H]4CCN(C(=O)c5cc(C(F)(F)F)cc(C(F)(F)F)c5)[C@H](Cc5ccccc5)C4)CC3)C2)C1 (stereo partly shown) [Compound 229] | 31.6 nM |  | 2510 nM |
| O=C(c1cc(C(F)(F)F)cc(C(F)(F)F)c1)N1CC[C@H](N2CCN([C@@H]3CCNC3)CC2)C[C@H]1Cc1ccc(Cl)c(Cl)c1 [Compound 262] | 6.31 nM | 501 nM |  |
| O=C(C1CCOC1)N1CCC(N2CCN(C3CCN(C(=O)c4cc(C(F)(F)F)cc(C(F)(F)F)c4)C(Cc4ccc(F)cc4)C3)CC2)C1 (stereo not shown) [Compound 274] | 10 nM |  | 3980 nM |
| O=C(C1CC1)N1CCC(N2CCN(C3CCN(C(=O)c4cc(C(F)(F)F)cc(C(F)(F)F)c4)C(Cc4ccc(F)cc4)C3)CC2)C1 (stereo not shown) [Compound 277] | 10 nM |  | 2510 nM |
| COc1ccc(C(O)C(=O)N2CCC(N3CCN([C@H]4CCN(C(=O)c5cc(C(F)(F)F)cc(C(F)(F)F)c5)[C@H](Cc5ccccc5)C4)CC3)C2)cc1 (stereo partly shown) [Compound 333] | 20 nM | 2510 nM |  |
| O=C(c1cc(C(F)(F)F)cc(C(F)(F)F)c1)N1CCC(N2CCN(C3CCN(S(=O)(=O)c4cc(CCOCc5ccccc5)cs4)C3)CC2)CC1Cc1ccccc1 (stereo not shown) [Compound 335] | 316 nM | 1000 nM |  |
| O=C(c1cc(C(F)(F)F)cc(C(F)(F)F)c1)N1CC[C@H](N2CCN(C3CCN(S(=O)(=O)c4ccc(CCOCc5ccccc5)s4)C3)CC2)C[C@H]1Cc1ccccc1 (stereo partly shown) [Compound 336] | 158 nM | 1000 nM |  |
| O=C1CC[C@@H](C(=O)N2CCC(N3CCN([C@H]4CCN(C(=O)c5cc(C(F)(F)F)cc(C(F)(F)F)c5)[C@H](Cc5ccccc5)C4)CC3)C2)O1 (stereo partly shown) [Compound 386] | 20 nM |  | 5010 nM |
| O=C1CC[C@H](C(=O)N2CCC(N3CCN([C@H]4CCN(C(=O)c5cc(C(F)(F)F)cc(C(F)(F)F)c5)[C@H](Cc5ccccc5)C4)CC3)C2)O1 (stereo partly shown) [Compound 387] | 20 nM |  | 5010 nM |
| CC(C)(C)OCC(=O)N1CCC(N2CCN([C@H]3CCN(C(=O)c4cc(C(F)(F)F)cc(C(F)(F)F)c4)[C@H](Cc4ccccc4)C3)CC2)C1 (stereo partly shown) [Compound 388] | 15.8 nM |  | 794 nM |
| COCCC(=O)N1CC[C@@H](N2CCN([C@H]3CCN(C(=O)c4cc(C(F)(F)F)cc(C(F)(F)F)c4)[C@H](Cc4ccccc4)C3)CC2)C1 [Compound 414] | 39.8 nM |  | 631 nM |
